Measurements from article PMC11921344, “Antimicrobial peptide DiPGLa-H exhibits the most outstanding anti-infective activity among the PGLa variants based on a systematic comparison” (Applied and Environmental Microbiology, 2025).
Where two headings read alike, the source gives them in different places. Where no end group is shown, it is not given here.

Columns and labels:
Gram-positive bacteria = assay: Geometric mean MIC and therapeutic index, Gram-positive; format: cell-based; settings: geometric mean of the peptide MICs against Gram-positive strains
Method: (§1) The antibacterial activity was evaluated using a standard MIC and MBC assay according to the National Committee for Clinical Laboratory Standards (NCCLS). MIC, MBC assay, and time-kill curves for the optimal peptide are provided in the Supplementary Materials.
Antimicrobial Activity Assays. The antibacterial activity of the peptides was determined using a method designed from the National Committee for Clinical Laboratory Standards (NCCLS) in the United States. All the strains used in the experiment are preserved in the laboratory. Briefly, log phase bacterial cells were diluted in MHB to a final concentration of 0.5-1x10^5 CFU/mL. Subsequently, 50μL of different concentrations of polypeptides were incubated with 50 μL of bacterial solution in sterile 96-well plates. In the minimum inhibitory concentration (MIC) assay, the plate was incubated at 37°C for 24 h, and the minimum inhibitory concentration (MIC) was determined by the absorbance at 492 nm of the microplate reader, and the minimum inhibitory concentration (MIC) inhibited 95% of bacteria grow. Determination of minimum bactericidal concentration: the plate was incubated at 37°C for 4 hours, 50 μL of the mixture was taken out of each well, diluted with an appropriate amount of PBS, smeared on the agar plate, and cultured overnight. Colonies were counted and the initial CFU/well was retrospectively calculated the following day. The lowest concentration of peptide that kills 99.9% of bacterial cells is the minimum bactericidal concentration (µM), Each test was replicated at least 3 times.

S. aureus Mu50 [1] = assay: Time-kill (bactericidal) curve; format: cell-based, Staphylococcus aureus MRSA; settings: four times MIC, TSB, 37°C
Method: as §1
(§2) The bactericidal curve of the optimal peptide was further determined. […] Each test was replicated at least 3 times.

[2] = system: E. coli K88 outer membrane; assay: Outer membrane integrity assay (NPN uptake); format: cell-based, Escherichia coli
Method: The outer and inner membrane integrity of bacterial cells treated with peptides was assessed using NPN and PI staining, respectively. Full details are provided in the Supplementary Materials.
Membrane permeabilization. Outer membrane integrity assay. The fluorescent probe NPN (Sigma-Aldrich, catalog no. 104043, ≥98%) was used to assess the outer membrane integrity of DiPGLa-H or mucin-treated E. coli K88. Briefly, log-medium E. coli K88 cells (OD600 = 0.2) were incubated with NPN (10 μM) in 5 mM HEPES buffer (pH 7.4, containing 5 mM glucose) for 30 min, and background fluorescence was recorded for subtraction. (excitation λ = 350 nm, emission λ = 420 nm) using a microplate reader (Varioskan Flash; Thermo, America). Subsequently, 100 μL of cell suspension was mixed with an equal volume of peptide solutions ranging in concentration from 4 to 64 μM in a sterile 96-well black plate. Fluorescence was recorded over time until no further increase in fluorescence was detected. Each test was performed independently, in duplicate, with three biological replicates, and results were converted to percent NPN uptake using the equation. NPN uptake (%) = (Fobs – Fbuffer)/ (Fpositive – Fbuffer) ×100%.
where Fobs is the observed fluorescence at a given peptide concentration, Fbuffer is the fluorescence of the buffer, and Fpositive is the fluorescence of NPN with microbial cells upon addition of 10 μg/mL polymyxin B (Sigma), which was used as a positive control because of its strong outer membrane-permeabilizing property. Untreated cell suspension served as the negative control.

[3] = system: A. baumannii ATCC19606 biofilm; assay: Anti-biofilm assay (crystal violet); format: cell-based, Acinetobacter baumannii
Method: The anti-biofilm activity of DiPGLa-H was evaluated using a crystal violet staining method. Briefly, 100 µL of bacterial suspension at 1 × 10^6 CFU/mL was incubated with DiPGLa-H (0–64 µM) for 48 h. The biofilm formed was stained with 1% crystal violet, and the absorbance was measured at 595 nm. The biofilm formation and mature biofilm removal assays were conducted. For biofilm formation, a bacterial suspension was incubated with DiPGLa-H, and biofilm content was quantified. To assess mature biofilm removal, pre-formed biofilms were treated with DiPGLa-H for 24 h, followed by quantification. Detailed Protocol in Supplementary Materials.
To test the ability of DiPGLa-H to […] on the test bacteria, a single colony was inoculated in MHB medium and incubated overnight at 37 °C and 180 r/min, and 1% of the bacterial suspension was taken and continued to be amplified and incubated for 2 h. […] The biofilm content was analyzed by measuring the absorbance value at 595 nm, and anhydrous ethanol was used as a blank control. […]

S. aureus Mu50 [4] = format: cell-based, Staphylococcus aureus MRSA; settings: for MIC S. aureus Mu50: Mu50, 2 h
Method: To assess the stability of the peptides in physiological conditions, the peptides were incubated with E. coli K88 and S. aureus Mu50 in the presence of salts (150 mM NaCl, 4.5 mM KCl, 6 µM NH4Cl, 8 µM ZnCl2, 1 mM MgCl2, 4 µM FeCl3, and 2.5 µM CaCl2) in accordance with a previously reported protocol. To determine the thermal stability of the peptides, the peptides were pretreated at 100°C for 30 min, 60 min, and 90 min and cooled on ice for 10 min. The effect of acid and base on the antimicrobial activity was measured by treating the peptides for 2 h at pH of 2, 4, 10, and 12 in 10 mM sodium phosphate buffer adjusted with HCl or NaOH.

E. coli K88 = assay: Time-kill (bactericidal) curve; format: cell-based, Escherichia coli; settings: four times MIC, TSB, 37°C
Method: as §1, §2

## KIAKVALKALKIAKVALKAL-NH2 (C-terminus assumed) [DiPGLa-H]
Gram-positive bacteria
  GMMIC Gram-positive: 5.66 µM
S. aureus Mu50 [1]
  time to complete eradication of S. aureus Mu50: 6 h
[2]; 64 µM peptide, relative to 10 µg/mL polymyxin B = 100%
  outer membrane permeability (NPN uptake): 184.4%
[2]; 1× MIC
  membrane permeability: approximately 80%
[3]; 1×10^6 CFU/mL, DiPGLa-H 0-64 µM, 48 h, crystal violet, 595 nm
  concentration for effective inhibition of biofilm formation: above 4 µM
[3]; pre-formed biofilm treated with DiPGLa-H 0-64 µM for 24 h
  concentration effectively eradicating biofilms: above 16 µM
S. aureus Mu50 [4]; pH 2
  MIC S. aureus Mu50: >32 µM
S. aureus Mu50 [4]; pH 4
  MIC S. aureus Mu50: >32 µM
S. aureus Mu50 [4]; pH 10
  MIC S. aureus Mu50: 32 µM
S. aureus Mu50 [4]; pH 12
  MIC S. aureus Mu50: 32 µM
S. aureus Mu50 [4]; heat 100°C and pH 2-12 treatments
  increase in MIC after high temperature and pH treatments, S. aureus Mu50: ≥ 4 fold
S. aureus Mu50 [4]; salts of Table S2
  increase in MIC values by cations, S. aureus Mu50: more than fourfold increase
E. coli K88
  time to complete eradication of E. coli K88: ≤ 30 min
